Earlier results as cited in patent publication US20230312703A1, “Method of Treating Psoriasis with IL-23 Specific Antibody” (Janssen Biotech, Inc., priority 2022, published 2023).
“And” between values parts separate entries of the source, which are not always exact repeats. Identical values can stand only once. Like-named read-outs stand apart in the source and are kept apart here.

Legend:
[1] = system: participants with psoriasis; details: ADVANCE (apremilast arm of cross-study comparison)
[2] = system: participants with psoriasis; details: Week 16; ESTEEM1
[3] = system: participants with psoriasis; details: Week 16; ESTEEM2
[4] = system: participants with psoriasis; details: Week 16, VOYAGE 1 & 2
[5] = system: participants with psoriasis
[6] = system: participants with psoriasis; remark: listed apart in the source
[7] = system: participants with psoriasis; details: Week 16; VOYAGE 2

| Molecule | Proportion of participants who achieve an Static Physician Global Assessment (sPGA) score of 0 or 1 with at least ≥2 grade improvement from baseline at Week 16 (BSA 2-15%) [1] | Proportion of participants who achieve a PASI 90 response [2] | Proportion of participants who achieve a ss-IGA score of 0 or 1 with ≥2-grade improvement from baseline among randomized participants with scalp psoriasis and an ss-IGA score ≥2 at baseline [2] | Proportion of participants who achieve a PASI 90 response [3] | Proportion of participants who achieve an IGA score of 0 or 1 with ≥2 grade improvement from baseline (BSA 10-15%) [4] | Proportion of participants who achieve an Static Physician Global Assessment (sPGA) score of 0 or 1 with at least ≥2 grade improvement from baseline at Week 16 (BSA 2-15%) ([5]; DISCOVER 1 & 2 (guselkumab arm of cross-study comparison)) | Proportion of participants who achieve an IGA score of 0 or 1 with ≥2 grade improvement from baseline (BSA 3-15%) ([5]; Week 16, DISCOVER 1 & 2, BSA 3-15%) | Proportion of participants who achieve an IGA score of clear (0) at Week 16 (BSA >=10%) ([6]; VOYAGE 1, BSA >=10%) | Change in PSSD Symptom score from baseline: Mean (SD) ([6]; Week 16, VOYAGE 1) | Percent improvement in NAPSI score from baseline: Mean (SD) ([6]; Week 16, VOYAGE 1) | Proportion of participants who achieve a PASI 90 response ([6]; Week 16, VOYAGE 1) | Proportion of participants who achieve a PASI 100 response ([6]; Week 16, VOYAGE 1) | Proportion of participants who achieve a ss-IGA score of 0 or 1 with ≥2-grade improvement from baseline among randomized participants with scalp psoriasis and an ss-IGA score ≥2 at baseline ([6]; Week 16, VOYAGE 1) | Proportion of participants with ≥4-point reduction (improvement) in PSSD Itch score from baseline among participants with a PSSD Itch score ≥4 at baseline ([6]; Week 16, VOYAGE 1) | Proportion of participants who achieve a PASI 90 response [7] |
| --- | --- | --- | --- | --- | --- | --- | --- | --- | --- | --- | --- | --- | --- | --- | --- |
| CCOc1cc([C@@H](CS(C)(=O)=O)N2C(=O)c3cccc(NC(C)=O)c3C2=O)ccc1OC [Apremilast] | 21.6% | 9.8% | 46.5% | 8.8% |  |  |  |  |  |  |  |  |  |  |  |
| Guselkumab: fully human IgG1 lambda monoclonal antibody that binds the p19 subunit of human IL-23; heavy chain SEQ ID NO: 9, light chain SEQ ID NO: 10 |  |  |  |  | 82.9% vs 9.1% | 55.7% | 55.7% vs 12.2% | 47.7% vs 1.1% | −41.9 (24.61) vs | 34.37 (42.448) vs Percent | 73.3% vs 2.9% and 73.3% | 37.4% vs 0.6% | 83.4% vs 14.5% and 83.4% | 75.0% vs 5.7% | 70.0% vs 2.4% |
